The assay concerns the target T1, human bradykinin B2 receptor (hB2R) (Homo sapiens, UniProt P30411).
T1 sequence (P30411 1-391): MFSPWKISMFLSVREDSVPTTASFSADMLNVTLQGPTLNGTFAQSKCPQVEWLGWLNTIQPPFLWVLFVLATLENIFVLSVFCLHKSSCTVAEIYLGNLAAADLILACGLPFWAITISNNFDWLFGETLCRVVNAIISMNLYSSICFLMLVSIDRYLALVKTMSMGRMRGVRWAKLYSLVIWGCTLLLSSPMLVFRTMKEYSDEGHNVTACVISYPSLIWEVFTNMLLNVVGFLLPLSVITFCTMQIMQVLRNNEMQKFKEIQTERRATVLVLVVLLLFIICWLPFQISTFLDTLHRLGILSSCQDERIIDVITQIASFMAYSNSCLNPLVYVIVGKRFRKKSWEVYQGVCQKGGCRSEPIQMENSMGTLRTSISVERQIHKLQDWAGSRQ
The assay can be described thus: human bradykinin B2 receptor calcium mobilization (hB2R-CaM) assay. It is filed as cell-based. The settings on record: antagonism of bradykinin (EC80) induced calcium mobilization, B2 Bradykinin Receptor Stable Cell Line HTS041C, 25 min pre-incubation; read-out: IC50-value towards human bradykinin B2 receptor (hB2R). The text has this: The following cell-based human bradykinin B2 receptor calcium mobilization (hB2R-CaM) assay was used to determine the antagonistic activity of compounds selected from the example compounds Nos. 1 to 107 towards human bradykinin B2 receptor (hB2R). The assay is defined herein as a standard in vitro B2 receptor activity assay, which can be used to determine IC50 values of the compounds according to the present invention, e. g. the compounds shown in Examples 1-13.
The antagonistic activity of compounds according to the present invention was investigated with the hB2R-CaM assay using the B2 Bradykinin Receptor Stable Cell Line HTS041C (Eurofins, St. Charles MO) and the FLIPR Calcium 6 Assay Kit (Molecular Devices, Wokingham, UK) according to the instructions of the providers. CaM assay measurements were performed with a Flexstation 3 System (Molecular Devices) which allows the precise addition of compounds (B2R antagonists) and bradykinin (B2R agonist) to the cells and adjacent continuous recording of the time-dependent CaM assay signals.
HTS041C cells were cultured in high glucose DMEM cell culture medium (Lonza) supplemented with 10% heat-inactivated FBS (PAN Biotech), 10 mM HEPES, Penicillin/Streptomycin (200 U/mL, 200 μg/mL), lx non-essential amino acids (Lonza), and 250 μg/mL G418 (Invivogen) in cell incubator at 37° C. in a 5% CO2 atmosphere. One day before the CaM assay experiments cells were seeded in 200 μL DMEM cell culture medium with reduced FBS (5%) and without G418 on clear bottom black 96 well plates (ThermoFisher #165305). Cell starvation was carried out by incubation (37° C., 5% CO2) of 70.000 cells/well for 24 h to 28 h. Immediately prior calcium dye-loading the medium was carefully aspirated and cells were washed with Hank's balanced salt solution (HBSS, Gibco) containing Ca^2+, Mg^2+ and 20 mM HEPES, adjusted to pH 7.4 (HBSS+).
For calcium dye-loading one FLIPR 6 assay aliquot was dissolved in 20 mL HBSS+. 150 μL of the dye loading solution was added to cell plate and incubated for 120 min at 37° C. and 5% CO2. After dye loading the cell plate was immediately transferred to the pre-warmed (37° C.) Flexstation 3 System for CaM assaying.
Freshly prepared compound (B2 receptor antagonists) dilution series (8 pt, n=2) and bradykinin (B2 receptor agonist) solution in non-binding plates (Costar) were transferred to the Flexstation System (source plate) shortly before starting the experiment. Bradykinin was added in EC80 concentration determined in n>3 preliminary experiments with 8 pt concentration response curves (n=8)). CaM assay was executed by Flexstation 3 System starting with recording of calcium-sensitive dye fluorescence in bottom-read Flex modus with ex/em=485 nm/525 nm, cut off(em)=515 nm After 20 s, 50 μL of 4-fold concentrated compound dilutions were added to the cells resulting in a final DMSO (Sigma) concentration of 0.1% in the cell plate. CaM signals were monitored for 80 s after additions for detection of potential agonistic activities. Prior to bradykinin stimulus compound- and vehicle-treated cells were incubated for 25 min at 37° C. within the Flexstation System. Then 50 μL of a 5-fold concentrated bradykinin solution (HBSS+, 0.1% DMSO) was added to trigger CaM signals (Read out: Max-Min values) which were measured for 80 s post bradykinin stimulus.
IC50 determinations were performed by 4 parameter logistic model curve fitting of the 8 pt (n=2) compound concentration response curves using XLFIT (IDBS) software.
As for `CCN1C(=O)C(C)N([C@@H](C)c2cc(F)cc(Cl)c2COc2cccc3c(-n4cc(F)cn4)cc(C)nc23)C1=O` (single isomer, unassigned) [Compound No. 2], the IC50 was 11 to 100 nM.

As to `CCN1C(=O)C(C)N([C@@H](C)c2cc(F)cc(Cl)c2COc2cccc3c(-n4cc(F)cn4)cc(C)nc23)C1=O` (single isomer, unassigned) [compound 29], the half-maximal inhibitory concentration (IC50) is 11 to 100 nM.

With `Cc1cc(-n2cc(F)cn2)c2cccc(OCc3c(Cl)cc(F)cc3[C@H](C)N3C(=O)N(C4CC4)C(=O)C3C)c2n1` (single isomer, unassigned) [compound 30], the IC50 was not above 10 nM.

Consider `Cc1cc(-n2cc(F)cn2)c2cccc(OCc3c(Cl)cc(F)cc3[C@H](C)N3C(=O)N(C4CC4)C(=O)C3C)c2n1` (single isomer, unassigned) [compound 31], for which the IC50 was in the range of 101 to 500 nM.

As to `Cc1cc(-n2cc(F)cn2)c2cccc(OCc3c(Cl)cc(F)cc3[C@H](C)N3C(=O)COCC3C)c2n1` (single isomer, unassigned) [compound 32], the IC50 was 11 to 100 nM.

On to `Cc1cc(-n2cc(F)cn2)c2cccc(OCc3c(Cl)cc(F)cc3[C@H](C)N3CCOC(C)C3=O)c2n1` (single isomer, unassigned) [compound 35], for which the IC50 was in the range of 11 to 100 nM.

For `Cc1cc(-c2ncnn2C)c2cccc(OCc3c(Cl)cc(F)cc3[C@H](C)N3CCOC(C)C3=O)c2n1` (single isomer, unassigned) [compound 48], the IC50 is not above 10 nM.

For `COC1CN([C@@H](C)c2cc(F)cc(Cl)c2COc2cccc3c(-n4cc(F)cn4)cc(C)nc23)C(=O)O1` (single isomer, unassigned) [compound 51], the IC50 is 11 to 100 nM.

For the molecule `COC1CN([C@@H](C)c2cc(F)cc(Cl)c2COc2cccc3c(-n4cc(F)cn4)cc(C)nc23)C(=O)O1` (single isomer, unassigned) [compound 52], the IC50 was 101 to 500 nM.

For `CCN1C(=O)C(C)N([C@@H](C)c2cc(F)cc(Cl)c2COc2cccc3c(-c4ncnn4C)cc(C)nc23)C1=O` (single isomer, unassigned) [compound 53], the IC50 is not above 10 nM.

For `CCN1C(=O)C(C)N([C@@H](C)c2cc(F)cc(Cl)c2COc2cccc3c(-c4ncnn4C)cc(C)nc23)C1=O` (single isomer, unassigned) [compound 54], the IC50 lay in the range of 11 to 100 nM.

For the molecule `Cc1cc(-c2ncnn2C)c2cccc(OCc3c(Cl)cc(F)cc3[C@H](C)N3C(=O)N(C4CC4)C(=O)C3C)c2n1` (single isomer, unassigned) [compound 55], the IC50 is not above 10 nM.

With `Cc1cc(-c2ncnn2C)c2cccc(OCc3c(Cl)cc(F)cc3[C@H](C)N3C(=O)N(C4CC4)C(=O)C3C)c2n1` (single isomer, unassigned) [compound 56], the 50% inhibitory concentration (IC50) lay within 11 to 100 nM.

Regarding `Cc1cc(-n2cc(F)cn2)c2cccc(OCc3c(Cl)cc(F)cc3[C@H](C)N3CCC(C)C3=O)c2n1` (single isomer, unassigned) [compound 58], the IC50 fell in the range of 11 to 100 nM.

In the case of `Cc1cc(-c2ncnn2C)c2cccc(OCc3c(Cl)cc(F)cc3[C@H](C)N3CCC(C)C3=O)c2n1` (single isomer, unassigned) [compound 60], the IC50 was not above 10 nM.

As to `Cc1cc(-c2ncnn2C)c2cccc(OCc3c(Cl)cc(F)cc3[C@H](C)N3C(=O)COCC3C)c2n1` (single isomer, unassigned) [compound 70], the half-inhibitory concentration (IC50) lay in the range of 11 to 100 nM.

Turning to `Cc1cc(-n2cc(F)cn2)c2cccc(OCc3c(Cl)cc(F)cc3[C@H](C)N3CC(=O)N(CC(N)=O)C3=O)c2n1` [Compound No. 1, (S)-2-(3-(1-(3-chloro-5-fluoro-2-((4-(4-fluoro-1H-pyrazol-1-yl)-2-methylquinolin-8-yloxy)methyl)phenyl)ethyl)-2,5-dioxoimidazolidin-1-yl)acetamide], the IC50 fell in the range of 11 to 100 nM.

Take `Cc1cc(-n2cc(F)cn2)c2cccc(OCc3c(Cl)cc(F)cc3[C@H](C)N3CCNC3=O)c2n1` [Compound No. 3, (S)-1-(1-(3-chloro-5-fluoro-2-((4-(4-fluoro-1H-pyrazol-1-yl)-2-methylquinolin-8-yloxy)methyl)phenyl)ethyl)imidazolidin-2-one]: the IC50 was 11 to 100 nM.

`Cc1cc(-c2ncnn2C)c2cccc(OCc3c(Cl)cc(F)cc3[C@H](C)N3CC[C@H](O)C3=O)c2n1` [Compound No. 4, (S)-1-((S)-1-(3-chloro-5-fluoro-2-((2-methyl-4-(1-methyl-1H-1,2,4-triazol-5-yl)quinolin-8-yloxy)methyl)phenyl)ethyl)-3-hydroxypyrrolidin-2-one]: the IC50 is not above 10 nM.

Consider `Cc1cc(-c2ncnn2C)c2cccc(OCc3c(Cl)cc(F)cc3[C@H](C)N3CC[C@@H](F)C3=O)c2n1` [Compound No. 5, (R)-1-((S)-1-(3-chloro-5-fluoro-2-((2-methyl-4-(1-methyl-1H-1,2,4-triazol-5-yl)quinolin-8-yloxy)methyl)phenyl)ethyl)-3-fluoropyrrolidin-2-one], for which the IC50 is not above 10 nM.

With `Cc1cc(-c2ncnn2C)c2cccc(OCc3c(Cl)cc(F)cc3[C@H](C)N3C[C@@H](OC(F)F)CC3=O)c2n1` [Compound No. 6, (S)-1-((S)-1-(3-chloro-5-fluoro-2-((2-methyl-4-(1-methyl-1H-1,2,4-triazol-5-yl)quinolin-8-yloxy)methyl)phenyl)ethyl)-4-(difluoromethoxy)pyrrolidin-2-one], the IC50 fell in the range of 11 to 100 nM.

Consider `Cc1cc(-c2ncnn2C)c2cccc(OCc3c(Cl)cc(F)cc3[C@H](C)N3CCC[C@@H](O)C3=O)c2n1` [Compound No. 7, (R)-1-((S)-1-(3-chloro-5-fluoro-2-((2-methyl-4-(1-methyl-1H-1,2,4-triazol-5-yl)quinolin-8-yloxy)methyl)phenyl)ethyl)-3-hydroxypiperidin-2-one], for which the IC50 lay in the range of 11 to 100 nM.

Take `Cc1cc(-c2ncnn2C)c2cccc(OCc3c(Cl)cc(F)cc3[C@H](C)N3C[C@@H](O)CCC3=O)c2n1` [Compound No. 8, (S)-1-((S)-1-(3-chloro-5-fluoro-2-((2-methyl-4-(1-methyl-1H-1,2,4-triazol-5-yl)quinolin-8-yloxy)methyl)phenyl)ethyl)-5-hydroxypiperidin-2-one]: the IC50 lay in the range of 11 to 100 nM.

With `Cc1cc(-n2cc(F)cn2)c2cccc(OCc3c(Cl)cc(F)cc3[C@H](C)N3CCN(C)CC3=O)c2n1` [Compound No. 9, (S)-1-(1-(3-chloro-5-fluoro-2-((4-(4-fluoro-1H-pyrazol-1-yl)-2-methylquinolin-8-yloxy)methyl)phenyl)ethyl)-4-methylpiperazin-2-one], the IC50 lay in the range of 11 to 100 nM.

Take `Cc1cc(-c2ncnn2C)c2cccc(OCc3c(Cl)cc(F)cc3[C@H](C)N3CCN(C)C(C)(C)C3=O)c2n1` [Compound No. 10, (S)-1-(1-(3-chloro-5-fluoro-2-((2-methyl-4-(1-methyl-1H-1,2,4-triazol-5-yl)quinolin-8-yloxy)methyl)phenyl)ethyl)-3,3,4-trimethylpiperazin-2-one]: the IC50 fell in the range of 11 to 100 nM.

`Cc1cc(-n2cc(F)cn2)c2cccc(OCc3c(Cl)cc(F)cc3[C@H](C)N3C[C@@H](C)N(C)C(=O)C3=O)c2n1` [Compound No. 11, (R)-1-((S)-1-(3-chloro-5-fluoro-2-((4-(4-fluoro-1H-pyrazol-1-yl)-2-methylquinolin-8-yloxy)methyl)phenyl)ethyl)-4,5-dimethylpiperazine-2,3-dione]: the half-inhibitory concentration (IC50) was not above 10 nM.

For the origin of these results see patent publication US12312330B2, “1-((S)-1-(3-chloro-5-fluoro-2-((4-(1h-pyrazol-1-yl)-2-methylquinolin-8-yloxy)methyl)phenyl)ethyl)-imidazolidine-2,4-dione derivatives and related compounds as bradykinin (BK) B2 receptor antagonist for treating skin diseases” (Pharvaris GmbH, priority 2019, dated 2025).
